Source: patent publication US12161632B2, “Compositions and methods of treating cardiac fibrosis with ifetroban” (Cumberland Pharmaceuticals Inc., priority 2014, dated 2024)
Entries after “also recorded” stand apart in the source; their conditions may differ. Where two headings read alike, the source gives them in different places.

Assays:
[1] = test system: pulmonary artery banding (PAB) model of right ventricular pressure overload; assay: PAB model of right ventricular pressure overload: hemodynamics, echocardiography, histology (Example VII); type: in vivo; conditions: PAB mice, low dose 3 mg/kg/day via drinking water, 2 weeks
[2] = test system: RV monocytes / macrophages; assay: Cardiac monocytes: LysM-Cre lineage tracing and flow cytometry of RV (Example VII); type: in vivo, mice
Method: Both male and female age-matched C57Bl/6 or FVB/NJ mice, obtained by in-house breeding, were used for pulmonary artery banding. LysM-GFP mice were obtained by cross-breeding LysM-Cre×mTomato/GFP reporter mice B6.129P2-Lyz2tm1(cre)Ifo/J (a gift from Tim Blackwell)×Gt(ROSA)26Sortm4(ACTB-tdTomato, -EGFP)Luo (JAX stock #007676). The day following surgery, mice were given either 25 mg/kg/day IFETROBAN (Cumberland Pharmaceuticals Inc., Nashville, TN) in drinking water or normal drinking water (vehicle) for 2 weeks or 6 weeks prior to hemodynamic evaluation. Mice were weighed and water was changed once a week.
TP receptors are also expressed on monocytes, and blockade of these receptors may have immune-specific effects. To determine whether the decrease in fibrosis seen with TP receptor inhibition was due to decreased macrophage infiltration or proliferation in the RV, PAB on LysM-Cre mice expressing eGFP under the LysozymeM promoter was performed, where all cells that have ever had monocyte lineage are labeled with GFP, even if they have later differentiated. […] Transgenic LysM-Cre×flox-mTomato-flox eGFP mice were used to label cells of monocyte derivation in the RV. These mice express a fluorescent red, except in cells derived from monocyte lineage (even if they have later differentiated), which express a fluorescent green. […] Flow sorting of whole RV for circulating markers found a non-significant trend towards an increase in PA-banded mice that was blocked by ifetroban.

[3] = test system: cultured cardiomyocytes given exogenous TGF-ß; assay: TGF-ß signalling in cultured cardiomyocytes (PAI-1 expression, promoter luciferase); type: cell-based; conditions: compared to vehicle-treated cells
RV gene expression = assay: Gene expression arrays on pooled RV from sham or PAB mice (Example VII); type: in vivo
Text: To determine the mechanism through which ifetroban reduced fibrosis and protected RV contractility, we performed gene expression arrays on sets of pooled RV from mice with sham or PAB surgery, with and without drug treatment. By principal components analysis strong effect of banding was found, and an effect of ifetroban only in mice that had undergone banding. […] In particular, there were changes in gene expression associated with adhesion, collagen organization, extracellular structure, and developmental processes.

[4] = test system: RV proteins (TP receptor, MHC, phospho-SMAD2/3, TSP-4); conditions: for TSP-4 protein expression in RV: high dose 25 mg/kg/day
Method: Mice underwent pulmonary arterial banding (PAB) or sham surgery, and were treated for 2 weeks with vehicle or ifetroban (competitive antagonist of TPα/TPβ) in the drinking water.
The effect of ifetroban treatment on known fibrotic and anti-fibrotic signaling pathways was examined.
In another arm of this example, low dose (3 mg/kg/day) ifetroban was administered to mice via the drinking water for 2 weeks following pulmonary artery banding.

[5] = test system: right ventricle gene expression; assay: Right ventricle gene expression, Affymetrix Mouse Gene 2.0 arrays (Example IV); type: in vivo, mice; conditions: banded mice, 25 mg/kg/day, 2 weeks
Method: FVB/N mice or mice with a GFP macrophage-specific lineage tracing marker (LysM-Cre) underwent pulmonary banding to directly increase load stress (or sham surgery for controls), and starting the following day received either vehicle or the thromboxane receptor antagonist Ifetroban sodium in their drinking water (25 mg/kg/day). After 2 weeks, noninvasive hemodynamics were obtained by transthoracic echocardiography and invasive hemodynamics were obtained by pressure-volume catheterization of the right heart prior to sacrifice. Hearts were assessed for fibrosis and macrophage infiltration. RNA from right ventricles were isolated and used for unbiased discovery of altered gene expression using Affymetrix Mouse Gene 2.0 arrays performed on four groups (banded or sham). LysM-Cre mouse hearts were flash-frozen whole, cross-sectioned, and assessed by microscopy for fibrosis and macrophage infiltration. Differences between groups were assessed by ANOVA and t-tests. Correlations were assessed by Spearman correlation.

[6] = PAB mice, 25 mg/kg/day, 2 weeks
[7] = only in the context of pressure overload

With CCCCCNC(=O)c1coc([C@H]2[C@@H](Cc3ccccc3CCC(=O)O)[C@@H]3CC[C@H]2O3)n1 [ifetroban, [1S-(1α,2α,3α,4α)]-2-[[3-[4-[(Pentylamino)carbonyl]-2-oxazolyl]-7-oxabicyclo[2.2.1]hept-2-yl]methyl]-benzenepropanoic acid] the “fibrosis of the right ventricle (histology)” value [1] was “does not prevent fibrosis”, the “PAB-induced increase in green (monocyte lineage) cells in RV” value ([2]; LysM-Cre reporter mice, ifetroban) was “not in ifetroban-treated mice” and the “flow sorting of whole RV for circulating markers: non-significant trend towards an increase in PA-banded mice” value ([2]; wildtype mice, PAB) was “blocked”. The “PAI-1 expression or promoter activity” value [3] was “no change”, the “principal components analysis of RV gene expression” value (RV gene expression; 25 mg/kg/day, 2 weeks) was “strong effect of ifetroban only in mice with banding” and the “Thbs4 expression (mRNA)” value (RV gene expression; PAB RV only) was “strongly enhances”. The “expression of antifibrotic genes” value (RV gene expression; PAB mice) was “increased expression”, the “expression of genes associated with fibrosis” value (RV gene expression; PAB mice) was “reduced expression” and the “expression of genes associated with myogenic differentiation” value (RV gene expression; PAB mice versus banded controls) was “enhanced”. For the same compound, the “RV expression of Cd14, Tlr8 and other pro-inflammatory genes” value (RV gene expression; [6]) was “decreased RV expression”, the “expression of genes associated with inflammatory cell recruitment” value (RV gene expression; [7]) was “reduced expression” and the “genes associated with adaptive remodeling” value (RV gene expression; [7]) was “ifetroban-induced genes associated with adaptive remodeling”. The “gene expression in mice with only sham surgeries” value (RV gene expression; sham, 25 mg/kg/day, 2 weeks) was “did not significantly change gene expression”, the “TP receptor expression in the RV (Western blot)” value ([4]; 2 weeks following PAB or drug treatment) was “remained constant” and the “phospho-SMAD2/3 associated with PAB” value ([4]; PAB mice versus vehicle-treated mice) was “less phospho-SMAD2/3”. For the same compound, the “localization of TSP-4 in RV” value ([4]; PAB mice, 25 mg/kg/day) was “increased cardiomyocyte expression of TSP-4”, the “α-MHC protein expression in RV (Western blot)” value [4, 6] was “no change in α-MHC expression” and the “β-MHC protein expression in RV (Western blot)” value [4, 6] was “strongly induced”. For the same compound, the “induction of the pro-fibrotic TGF-beta pathway” value ([4]; PAB mice, 2 weeks) was “blocked induction”, the “TSP-4 protein expression in RV” value ([4]; PAB mice, 2 weeks, 25 mg/kg/day) was “increased TSP-4 protein; also recorded: increases the expression of antifibrotic TSP-4” and the “TSP-4 protein expression in RV” value ([4]; PAB mice, 2 weeks, listed as Ifetroban, 25 mg/kg/day) was “increased expression of anti-fibrotic thrombospondin-4”. For the same compound, the “TSP-4 expression in RV (Western blot densitometry)” value ([4]; PAB mice, low dose 3 mg/kg/day, 2 weeks) was “does not”, the “anti-fibrotic pathways (THBS4, Asporin, LTBP2), expression arrays” value [5] was “induction of anti-fibrotic pathways including THBS4 and TGF-beta inhibitors Asporin and LTBP2” and the “pathways related to functional hypertrophy, expression arrays” value [5] was “induction of pathways related to functional hypertrophy”. For the same compound, the “pro-fibrotic pathways (PDGF-D, FBXO32), expression arrays” value [5] was “reduction of pro-fibrotic pathways such as PDGF-D and FBXO32”.
